Columns and labels:
C. albicans (CAN14) = test: MIC, broth microdilution (CLSI M27-A3), reference isolate; settings: Candida albicans
C. albicans (DAY-185) = test: as above; settings: Candida albicans, 48 h
C. glabrata (ATCC90030) = test: as above; settings: Nakaseomyces glabratus
C. albicans CAN14 [1] = test: Murine model of systemic candidiasis; format: in vivo, C57BL/6 mice; settings: 10 mg/kg intraperitoneally every 12 h for 5 days
Method: Female mice were used in the oral and systemic candidiasis model.
The murine model of systemic candidiasis was established according to the protocol previously described by [16], with modifications. […] Treatments to mice, performed intraperitoneally, were started 3 h after infection and persisted every 12 h for 5 days. […] All mice were sacrificed by cervical dislocation after 5 days and the kidneys were removed, observed macroscopically for lesions and colonies, weighed, measured and homogenized in PBS. The homogenates were serially diluted and plated on Sabouraud medium plates. Plates were incubated at 30 °C for 48 h and the fungal load was expressed as the ratio of CFU/g of kidney.
A p value ≤ 0.05 was considered significant. Statistical analysis of results of murine tests used Newman–Keuls Multiple and the Student’s t-test using GraphPad Prism, a p-value ≤ 0.05 was considered significant.

C. krusei (ATCC6258) = test: MIC, broth microdilution (CLSI M27-A3), reference isolate; settings: Pichia kudriavzevii
[2] = system: Candida glabrata clinical isolates; test: MIC, broth microdilution, clinical isolates
[3] = system: Cryptococcus neoformans clinical isolates; test: MIC, broth microdilution, clinical isolates
C. dublinensis (MYA-646) = test: MIC, broth microdilution (CLSI M27-A3), reference isolate; settings: Candida dubliniensis
C. neoformans (H99) = test: as above; settings: Cryptococcus neoformans
[4] = system: C. tropicalis (ATCC13803); test: as above; settings: Candida tropicalis
[5] = system: C. parapsilosis (ATCC22019); test: as above; settings: Lodderomyces parapsilosis
[6] = system: Candida albicans clinical isolates; test: MIC, broth microdilution, clinical isolates
[7] = system: Candida parapsilosis isolates; test: MIC, broth microdilution, clinical isolates
C. albicans CAN14 [8] = test: Murine model of oral candidiasis; format: in vivo, C57BL/6 mice; settings: 600 IU, into the mouth every 12 h for 4 days, immunosuppressed mice

OC(Cn1cncn1)(Cn1cncn1)c1ccc(F)cc1F [Fluconazole]
0.125 µg/mL: MIC (C. albicans (CAN14))
2 µg/mL: MIC50 ([2]; Nakaseomyces glabratus) | MIC90 ([2]; Nakaseomyces glabratus) | MIC ([2]; Nakaseomyces glabratus, C. glabrata clinical isolate 6922) | MIC ([2]; Nakaseomyces glabratus, C. glabrata clinical isolate 6927) | MIC ([2]; Nakaseomyces glabratus, C. glabrata clinical isolate 7255) | MIC ([2]; Nakaseomyces glabratus, C. glabrata clinical isolate 7815) | MIC ([2]; Nakaseomyces glabratus, C. glabrata clinical isolate 7871) | MIC ([3]; C. neoformans clinical isolate 975) | MIC ([3]; C. neoformans clinical isolate 9220) | MIC ([3]; C. neoformans clinical isolate 9273) | MIC (C. neoformans (H99)) | MIC90 ([6]; Candida albicans) | MIC ([6]; Candida albicans, C. albicans clinical isolate 02B)
1 µg/mL: MIC ([2]; Nakaseomyces glabratus, C. glabrata clinical isolate 7110) | MIC ([3]; C. neoformans clinical isolate 646B) | MIC (C. dublinensis (MYA-646)) | MIC50 ([6]; Candida albicans) | MIC ([6]; Candida albicans, C. albicans clinical isolate 1) | MIC ([6]; Candida albicans, C. albicans clinical isolate 6) | MIC ([6]; Candida albicans, C. albicans clinical isolate 7) | MIC ([6]; Candida albicans, C. albicans clinical isolate 11) | MIC ([6]; Candida albicans, C. albicans clinical isolate 13) | MIC ([7]; Lodderomyces parapsilosis, C. parapsilosis isolate 7970A)
0.5 µg/mL: MIC (C. albicans (DAY-185)) | MIC ([2]; Nakaseomyces glabratus, C. glabrata clinical isolate 6931) | MIC ([2]; Nakaseomyces glabratus, C. glabrata clinical isolate 6932) | MIC ([2]; Nakaseomyces glabratus, C. glabrata clinical isolate 7221) | MIC ([6]; Candida albicans, C. albicans clinical isolate 9) | MIC ([6]; Candida albicans, C. albicans clinical isolate 10) | MIC ([7]; Lodderomyces parapsilosis, C. parapsilosis isolate 7839)
> 64 µg/mL: MIC [4]
32 µg/mL: MIC ([3]; C. neoformans clinical isolate 41295) | MIC ([3]; C. neoformans clinical isolate 90896)
sensitive: susceptibility of isolates according to CLSI M27-S4 ([2]; all C. glabrata clinical isolates)
8 µg/mL: MIC ([2]; Nakaseomyces glabratus, C. glabrata clinical isolate 6943) | MIC50 [3] | MIC ([3]; C. neoformans clinical isolate 27JF) | MIC ([3]; C. neoformans clinical isolate 28JF) | MIC ([3]; C. neoformans clinical isolate 94) | MIC ([3]; C. neoformans clinical isolate 10131) | MIC ([3]; C. neoformans clinical isolate 10335) | MIC ([3]; C. neoformans clinical isolate 10379) | MIC ([3]; C. neoformans clinical isolate 41292) | MIC ([3]; C. neoformans clinical isolate 41297) | MIC ([3]; C. neoformans clinical isolate 41298) | MIC ([3]; C. neoformans clinical isolate 92868) | MIC ([3]; C. neoformans clinical isolate WP) | MIC [5]
0.25 µg/mL: MIC50 ([7]; Lodderomyces parapsilosis) | MIC ([7]; Lodderomyces parapsilosis, C. parapsilosis isolate 6901) | MIC ([7]; Lodderomyces parapsilosis, C. parapsilosis isolate 6917) | MIC ([7]; Lodderomyces parapsilosis, C. parapsilosis isolate 6933) | MIC ([7]; Lodderomyces parapsilosis, C. parapsilosis isolate 7585) | MIC ([7]; Lodderomyces parapsilosis, C. parapsilosis isolate 8044)
significant reduction: fungal load in the kidneys (CFU/g) versus untreated control (C. albicans CAN14 [1])
2.0 µg/mL: MIC90 ([6]; nine C. albicans clinical isolates)
16 µg/mL: MIC90 [3] | MIC ([3]; C. neoformans clinical isolate 41296) | MIC ([3]; C. neoformans clinical isolate BF113) | MIC90 ([7]; C. parapsilosis isolates) | MIC90 ([7]; Lodderomyces parapsilosis) | MIC ([7]; Lodderomyces parapsilosis, C. parapsilosis isolate 7449) | MIC ([7]; Lodderomyces parapsilosis, C. parapsilosis isolate 8662)
64 µg/mL: MIC (C. krusei (ATCC6258)) | MIC ([3]; C. neoformans clinical isolate BF114)
4 µg/mL: MIC (C. glabrata (ATCC90030)) | MIC ([3]; C. neoformans clinical isolate 93) | MIC ([3]; C. neoformans clinical isolate 10211) | MIC ([3]; C. neoformans clinical isolate 10264) | MIC ([3]; C. neoformans clinical isolate 41299) | MIC ([3]; C. neoformans clinical isolate C31) | MIC ([3]; C. neoformans clinical isolate F10) | MIC ([3]; C. neoformans clinical isolate RN01) | MIC ([6]; Candida albicans, C. albicans clinical isolate 02A) | MIC ([7]; Lodderomyces parapsilosis, C. parapsilosis isolate 7652)

C[C@@H]1[C@H](O)[C@@H](C)/C=C/C=C/CC/C=C/C=C/C=C/C=C/C(O[C@H]2O[C@H](C)[C@@H](O)[C@H](N)[C@@H]2O)CC2O[C@](O)(CC(O)C(O)CCC(O)CC(O)CC(O)CC(=O)O[C@H]1C)CC(O)C2C(=O)O (some centres unmarked) [nystatin]
lower: fungal load on the tongue (CFU) versus untreated control (C. albicans CAN14 [8])

Reference: PMC6308944, “Anti-Candida albicans Activity of Thiazolylhydrazone Derivatives in Invertebrate and Murine Models” (Journal of Fungi, 2018)
